The values that follow come from patent US20240115532A1, “USE OF L-ERGOTHIONEINE FOR ALLEVIATING AND PREVENTING AGE-RELATED VISUAL DEGENERATION” (NANJING NUTRABUILDING BIO-TECH CO., LTD., priority 2021, published 2024).

The structures appear in SMILES notation.

One assay deals with VEGFR1 genes. Kind of assay: Zebrafish q-PCR of VEGFR1 genes. In kind it is in vivo. The conditions noted are these: 3 days at 28° C., β-actin internal reference, FIG. 4. As to the method: Except that the positive control is bevacizumab (a potent antiangiogenic substance), experimental animals, sample preparation of L-Ergothioneine and sample processing are the same as in test 4.
(§1) After 3 days of supplementation at 28° C., the total RNA of each group of zebrafish was extracted using an RNA rapid extraction kit, and the concentration and purity of total RNA were determined by UV-Vis spectrophotometer. Take 2.00 μg of total RNA from zebrafish samples and follow the instructions of the first-strand cDNA synthesis kit to synthesize 20.0 μL of cDNA, and detect the expression of ß-actin and VEGFR1 genes by q-PCR. Using 6-actin as an internal reference for gene expression, the relative RNA expression levels of VEGFR1 genes were calculated.

The subject of another assay is ROS. Kind of assay: Zebrafish ROS fluorescence value (CM-H2DCFDA). The class given is in vivo. Conditions: wild-type AB strain, 500, 1000, 2000 μg/mL, 2 days plus 20 hours staining, FIG. 3. As to the method:
After 2 days of supplementation at 28° C., zebrafish were stained with CM-H2DCFDA, and the original concentration in each well remained unchanged. 10 zebrafish were randomly selected from each experimental group and transferred to black 96 microtiter plates.

The subject of assay [1] is Reactive oxygen species (ROS). In words: ROS in retina tissue by 2',7'-dichlorofluorescein diacetate fluorescence. In kind it is in vivo, C57BL/6J mice. The conditions noted are these: aged mice, 2 or 10 mg/kg/d by gavage for 5 months. The procedure: (§2) They were randomly divided into three groups: (1) non-supplement group (Con, n=6); (2) L-Ergothioneine supplement group with low dosage (L-Ergothioneine, 2 mg/kg/d, n=6); (3) L-Ergothioneine supplement group with high dosage (L-Ergothioneine, 10 mg/kg/d, n=6). Some mice were administered L-Ergothioneine for once daily by gavage in normal saline solution for 5 months.
(§3) Mice were euthanized by CO2 inhalation followed by cervical dislocation at the end of study and their eyes were immediately removed. The eyes of some mice (n=3) fixed in 2% paraformaldehyde for 2 h and the retina samples of some mice (n=3) were isolated from eyes radically. All tissues were frozen in optimal cutting temperature embedding compound.
Partial retina tissues were obtained and rapidly broken up in ice-cold normal saline. A tissue homogenate (10%, w/v) was then prepared.
Antioxidant capacity of the retina was measured using an assay based on the ability of the sample to inhibit the oxidation of 2,2′-azino-di-[3-ethylbenzthiazoline sulfonate]+(ABTS) by metmyoglobin. The amount of ABTS+ produced was measured in terms of the decrease in absorbance caused by the antioxidants in the sample. Reactive oxygen species (ROS) were quantified by fluorescence spectroscopy using 2′,7′-dichlorofluorescein diacetate.

A further assay concerns Nrf2. Kind of assay: Nrf2 real-time PCR in retina tissues. The class given is in vivo, C57BL/6J mice. Conditions: aged mice, 2 or 10 mg/kg/d by gavage for 5 months. As to the method:
as §2, §3
Total RNA was isolated from retina tissues using Trizol reagent. Real-time PCR was measured and performed with the following primers: Nrf2 forward 5′-[…]-3′. RNA samples were reverse-transcribed to cDNA and subjected to quantitative PCR, performed with a Light Cycler 96 Real-Time PCR System using the AceQ qPCR SYBR Green Master Mix. Nrf2 measurements can be identify the capacity of L-Ergothioneine-mediated Nrf2.
Background: Real-time PCR tracks product formation cycle by cycle.

Assay [2] concerns subretinal choroidal neovascularization. Kind of assay: Zebrafish wet macular degeneration model (cobalt chloride), choroidal vessel area. The class given is in vivo. Conditions: 500, 1000, 2000 μg/mL in water, 3 days, 28° C., FIG. 1. The procedure: Experimental animals: Zebrafish were raised in fish water at 28° C. (water quality: 200 mg of instant sea salt was added to each 1 L of reverse osmosis water, the conductivity was 450-550 μS/cm; pH was 6.5-8.5; hardness was […] CaCO3). Transgenic vascular green fluorescent zebrafish (Fli-1 strain) were reproduced by natural paired mating. Age is 1 day after fertilization (1 dpf).
Sample preparation: L-Ergothioneine, white powder, was prepared into 2.00 mg/mL mother solution with standard dilution water. Positive control: Aescin and digitalis double glucoside eye drops was directly sucked the original solution.
Experimental design: The transgenic vascular green fluorescent strain zebrafish aged 1 day after fertilization (1 dpf) were randomly selected and placed in a 6-well plate, with 30 fish in each well (each experimental group). L-Ergothioneine (concentrations of 500, 1000, and 2000 μg/mL) were administered in water solution, respectively, and the positive control escin and digitalis glucoside eye drops (containing 0.3 μg/mL of digitonin and 2.0 μg/mL of escin) were administered, respectively. […] After 3 days of treatment at 28° C., 10 zebrafish were randomly selected from each experimental group and placed under a fluorescence microscope to take pictures, and the NIS-Elements D 3.20 advanced image processing software was used to analyze and collect the data. […]

In assay [3] the test system is oxidation-induced EMT in RPE. Kind of assay: Immunoreactivity of mesenchymal markers (Slug, Snail, vimentin, OB-cadherin) in RPE sections. The conditions noted are these: aged mice, 2 or 10 mg/kg/d by gavage for 5 months. In kind it is in vivo, C57BL/6J mice. The procedure: as §2, §3
From paraffin embedded blocks, 3 μm-thick parasagittal serial sections were cut with a microtome for future testing the immunoreactivity of mesenchymal markers. The immunoreactivity of mesenchymal markers (Slug, Snail, vimentin, OB-cadherin) was examined with a confocal microscope. And semi-quantitative comparative densitometric analysis performed by ImageJ of the immunoreactivity of the mesenchymal markers in 1-μm parasagittal sections of RPE. Alexa Fluor secondary antibodies were used to detect specific mesenchymal markers. DAPI (4,6-diamidino-2-fenilindole, dihydrochloride) was used to stain the nuclei of RPE cells.

Another assay concerns hif-1α genes. In words: Zebrafish q-PCR of hif-1α genes. The class given is in vivo. Conditions: 3 days at 28° C., FIG. 5. As to the method: as §1
(§4) The other test condition and methods are the same as test 7. Except that just detect 6-actin, hif-1α and vegfaa genes by q-PCR.

Assay [4] concerns subretinal choroidal neovascularization (CNV). In words: Fluorescein angiography of Matrigel-induced subretinal CNV in aged mice. In kind it is in vivo, C57BL/6J mice. The conditions noted are these: 2 or 10 mg/kg/d by gavage for 5 months. The source says: The healthy and male C57BL/6J mice at 18-24 months of age were maintained under the barrier conditions in a temperature-controlled environment and fed a commercial mouse chow.
The healthy and male C57BL/6J mice at 14-18 months of age were maintained under the barrier conditions in a temperature-controlled environment and fed a commercial mouse chow.
Animal mode of subretinal choroidal neovascularization (CNV): All mice were subretinally injected with Matrigel in both eyes under general anesthesia. The liquid Matrigel (75% v/v) was prepared using phosphate-buffered saline (PBS) at 4° C. After exposing the sclera, an incision was made between the limbus and the equator using a sharp No. 33 size needle. The Matrigel suspension (0.5 μl per eye) administered via a Hamilton microsyringe with a No. 33 blunt tip needle was slowly injected into the subretinal space along the previous needle tract. Following injection, the Matrigel polymerized to form a solid gel. Fluorescence angiograms were performed over a period of 3 weeks to identify whether mice have CNV.
Fluorescein angiography: After subretinal injection, fluorescein angiograms were obtained on days 3, 7, 10, 14, and 21. Briefly, every mouse group (n=5) were anesthetized with ketamine and xylazine, and the pupils were dilated with 0.5% tropicamide eye drops. […]

In another assay the test system is VEGF. Kind of assay: VEGF ELISA in retina tissue homogenate. The class given is in vivo, C57BL/6J mice. The conditions noted are these: aged mice, 2 or 10 mg/kg/d by gavage for 5 months.
For assay [5], the system named is zebrafish retinal structure. In words: Zebrafish eye histopathology (H&E) after cobalt chloride model. The class given is in vivo. Conditions: FIG. 2. From the text:
Experimental animals, sample preparation, sample processing and administration are same as test 4. After that, these zebrafish after 3 days of administration were fixed with 4% histiocyte fixative, then stained with H&E and they were subject to test ocular histopathological analysis.

For a further assay, the system named is vegfaa genes. In words: Zebrafish q-PCR of vegfaa genes. The class given is in vivo. Conditions: 3 days at 28° C., FIG. 6. As to the method:
as §1, §4

With `C[N+](C)(C)[C@@H](Cc1c[nH]c(=S)[nH]1)C(=O)[O-]` [L-Ergothioneine], the “relative expression level of VEGFR1 genes” value with VEGFR1 genes is given as “decreasing the expression of VEGFR1 genes”. Also, the “ROS fluorescence value of zebrafish” value with ROS is on record as “good effect on preventing retinal degeneration”. Moreover, the “scavenging of chronic ROS in retina” value in assay [1] is recorded as “about 45%”. Also, the “activation of Nrf2-mediated genes in retina” value in the assay on Nrf2 was “activated”. For the same compound, the “choroidal vessel area of the zebrafish eye” value in [2] is “could mitigate subretinal choroidal neovascularization”. In addition, in assay [3], the “mesenchymal marker immunoreactivity in RPE” value was “decreased” and the “oxidation-induced EMT / epithelial fibrosis in RPE” value is “inhibited”. Also, the “relative expression level of hif-1α genes” value in the assay with hif-1α genes was “lowering the expression level”. Besides, in assay [4], the CNV level result is listed as “attenuated obviously”. The “decrease of VEGF level in retina” value with VEGF is “about 50%”. Besides, the “damage of zebrafish retinal structure (histopathological section)” value in assay [5] (500, 1000, 2000 μg/mL, 3 days, H&E) is “can improve the damage of zebrafish retinal structure”. Further, in assay [5] (versus aescin and digitalis double glucoside eye drops), the “effect on retinal structure compared with positive control eye drops” value was “better than that of aescin and digitalis double glucoside eye drops”. Besides, in the assay with vegfaa genes, the “relative expression level of vegfaa genes” value is “lowering the expression level”.
